pIC50: −log10 of the molar value.

The target of one assay is T1, human CTPS1 (Homo sapiens, UniProt P17812).
T1 sequence (P17812 1-591): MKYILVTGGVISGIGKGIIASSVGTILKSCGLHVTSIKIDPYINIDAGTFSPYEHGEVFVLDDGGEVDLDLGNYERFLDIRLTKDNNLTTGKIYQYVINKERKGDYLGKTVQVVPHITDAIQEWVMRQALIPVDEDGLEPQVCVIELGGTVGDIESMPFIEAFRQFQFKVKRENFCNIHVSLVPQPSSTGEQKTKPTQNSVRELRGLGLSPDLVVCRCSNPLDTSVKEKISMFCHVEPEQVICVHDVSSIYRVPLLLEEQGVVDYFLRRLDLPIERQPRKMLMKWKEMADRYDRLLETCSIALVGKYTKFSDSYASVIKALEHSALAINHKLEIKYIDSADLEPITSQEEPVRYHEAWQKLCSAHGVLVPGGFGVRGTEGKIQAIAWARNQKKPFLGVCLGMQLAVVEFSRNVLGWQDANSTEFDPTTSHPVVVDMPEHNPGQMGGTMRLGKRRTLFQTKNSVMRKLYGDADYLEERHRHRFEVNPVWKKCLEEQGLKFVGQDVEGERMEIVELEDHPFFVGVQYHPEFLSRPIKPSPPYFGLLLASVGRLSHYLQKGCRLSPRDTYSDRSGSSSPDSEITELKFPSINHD
As to the kind of experiment: ADP-Glo assay, human CTPS1 enzyme inhibition. It is filed as biochemical. As to conditions: wild-type human CTPS1 25 nM; ATP 120 μM, UTP 160 μM, GTP 60 μM, L-glutamine 100 μM; 25 degrees C.; read-out: ADP-Glo_WT_hCTPS1—25 nM_IC50 (IC50). Put shortly:
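ADP-Glo luminescence quantified ADP produced by 25 nM purified human CTPS1 (full length, FLAG-His tagged) at 25° C within the linear phase. Final substrates: ATP 120 μM, UTP 160 μM, GTP 60 μM, L-glutamine 100 μM; 1% DMSO; pH 7.4 HEPES buffer with Mg2+, KCl, DTT. Compound pre-incubated with enzyme 10 min, then with ATP/UTP 10 min.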
(In general: In ADP-Glo the light output rises with the ADP produced.)
Turning to `COC[C@@H](NC(=O)c1ncc(-c2cnn3ccc(Cl)cc23)s1)c1nccc(NS(=O)(=O)C2CC2)n1` (single isomer, unassigned) [II-10], the pIC50 (commonly the IC50 on a negative log10 scale, so that one unit is a factor of ten) was 7.30 to 7.60.
The same measure, in the same setting: next, `CCOc1cncc(-c2cnc(C(=O)N[C@@H](COC)c3cc(NS(=O)(=O)C4CC4)ncn3)s2)n1` (single isomer, unassigned) [II-7]: 7.60 to 8.30.

Staying with this assay, now noted: wild-type human CTPS1, 25 nM enzyme; ADP-Glo; read-out: ADP-Glo_WT_hCTPS1—25 nM_IC50 (IC50).
As for `CCOc1cncc(-c2cnc(C(=O)N[C@H](c3cccc(NS(=O)(=O)C(F)F)c3)[C@H]3COCCO3)s2)n1` [I-198, N-((R)-(3-((difluoromethyl)sulfonamido)phenyl)((S)-1,4-dioxan-2-yl)methyl)-5-(6-ethoxypyrazin-2-yl)thiazole-2-carboxamide], the pIC50 was 7.60 to 8.30.
As to `CCOc1cncc(-c2cnc(C(=O)N[C@@H](c3cc(NS(=O)(=O)C4CC4)ccn3)[C@H](C)CN3CCCCC3)s2)n1` (stereo in doubt) [I-51, N-((1R,2R)-1-(4-(cyclopropanesulfonamido)pyridin-2-yl)-2-methyl-3-(piperidin-1-yl)propyl)-5-(6-ethoxypyrazin-2-yl)thiazole-2-carboxamide], the pIC50 is 7.60 to 8.30.
As to `CCOc1cncc(-c2cnc(C(=O)N[C@H](c3cc(NS(=O)(=O)C4CC4)ccn3)[C@H]3COCCO3)s2)n1` [I-73, N-((R)-(4-(cyclopropanesulfonamido)pyridin-2-yl)((S)-1,4-dioxan-2-yl)methyl)-5-(6-ethoxypyrazin-2-yl)thiazole-2-carboxamide], the pIC50 was 7.60 to 8.30.
With `CCOc1cncc(-c2cnc(C(=O)N[C@@H](COC)c3ccnc(NS(=O)(=O)C4CC4)n3)s2)n1` [I-281, (R)-N-(1-(2-(cyclopropanesulfonamido)pyrimidin-4-yl)-2-methoxyethyl)-5-(6-ethoxypyrazin-2-yl)thiazole-2-carboxamide], the pIC50 was 7.60 to 8.30.
Same read-out and setting: next, `C[C@@H](O)[C@@H](NC(=O)c1ncc(-c2cnn3ccc(Cl)cc23)s1)c1cc(NS(=O)(=O)C2CC2)ccn1` [I-274, 5-(5-chloropyrazolo[1,5-a]pyridin-3-yl)-N-((1S,2R)-1-(4-(cyclopropanesulfonamido)pyridin-2-yl)-2-hydroxypropyl)thiazole-2-carboxamide]: 7.60 to 8.30.
On the same count and under the same terms, the same measure for `C[C@@H](CO)[C@H](NC(=O)c1ncc(-c2cnn3ccc(Cl)cc23)s1)c1cc(NS(=O)(=O)C2CC2)ccn1` [I-232, 5-(5-chloropyrazolo[1,5-a]pyridin-3-yl)-N-((1S,2R)-1-(4-(cyclopropanesulfonamido)pyridin-2-yl)-3-hydroxy-2-methylpropyl)thiazole-2-carboxamide]: 7.60 to 8.30; for `CCOc1cncc(-c2ccc(C(=O)NCc3cc(NS(=O)(=O)C4CC4)ccn3)c(F)c2F)n1` [I-175, N-((4-(cyclopropanesulfonamido)pyridin-2-yl)methyl)-4-(6-ethoxypyrazin-2-yl)-2,3-difluorobenzamide]: 7.60 to 8.30; for `CCOc1cncc(-c2ccc(C(=O)NCc3cc(NS(=O)(=O)C4CC4)ccn3)cn2)n1` [I-172, N-((4-(cyclopropanesulfonamido)pyridin-2-yl)methyl)-6-(6-ethoxypyrazin-2-yl)nicotinamide]: 7.30 to 7.60.
Same read-out and setting: next, `CCOc1cncc(-c2cnc(C(=O)N[C@H](c3cc(NS(=O)(=O)C4CC4)ccn3)C(C)(C)O)s2)n1` [I-276, (R)-N-(1-(4-(cyclopropanesulfonamido)pyridin-2-yl)-2-hydroxy-2-methylpropyl)-5-(6-ethoxypyrazin-2-yl)thiazole-2-carboxamide]: 7.60 to 8.30; `CCOc1cncc(-c2cnc(C(=O)N[C@@H](CCN3CCC(F)CC3)c3cc(NS(=O)(=O)C4CC4)ccn3)s2)n1` (single isomer, unassigned) [I-15]: 7.00 to 7.30.
Take `CCOc1cncc(-c2cnc(C(=O)N[C@H](c3cc(NS(=O)(=O)C4CC4)ccn3)[C@@H](C)N3C[C@H]4C[C@@H]3CO4)s2)n1` [I-167, N-((1S,2R)-2-((1R,4R)-2-oxa-5-azabicyclo[2.2.1]heptan-5-yl)-1-(4-(cyclopropanesulfonamido)pyridin-2-yl)propyl)-5-(6-ethoxypyrazin-2-yl)thiazole-2-carboxamide]: the pIC50 is 7.30 to 7.60.
`CCOc1cncc(-c2cnc(C(=O)N[C@H](CCN3CCC(F)CC3)c3cc(NS(=O)(=O)C4CC4)ccn3)s2)n1` (single isomer, unassigned) [I-16]: the pIC50 was 7.60 to 8.30.
Still for that read-out and setting: the same measure for `O=C(N[C@@H](c1cc(NS(=O)(=O)C2CC2)ccn1)[C@H]1COCCO1)c1ncc(-c2cnn3ccc(Cl)cc23)s1` [I-80, 5-(5-chloropyrazolo[1,5-a]pyridin-3-yl)-N-((S)-(4-(cyclopropanesulfonamido)pyridin-2-yl)((S)-1,4-dioxan-2-yl)methyl)thiazole-2-carboxamide]: 7.60 to 8.30; for `COC[C@H](NC(=O)c1ncc(-c2cnn3ccc(Cl)cc23)s1)c1cc(NS(=O)(=O)C2CC2)ccn1` (single isomer, unassigned) [I-3]: 7.60 to 8.30; for `CCOc1cncc(-c2ccc(C(=O)N[C@@H](COC)c3cc(NS(=O)(=O)C4CC4)ccn3)cc2)n1` [I-279, (R)-N-(1-(4-(cyclopropanesulfonamido)pyridin-2-yl)-2-methoxyethyl)-4-(6-ethoxypyrazin-2-yl)benzamide]: 7.60 to 8.30.
Still for that read-out and setting: the same measure for `CCOc1cncc(-c2ccc(C(=O)NCc3cc(NS(=O)(=O)C4CC4)ccn3)cc2F)n1` [I-173, N-((4-(cyclopropanesulfonamido)pyridin-2-yl)methyl)-4-(6-ethoxypyrazin-2-yl)-3-fluorobenzamide]: 7.60 to 8.30; for `CCOc1cncc(-c2cnc(C(=O)N[C@@H](c3cc(NS(=O)(=O)C4CC4)ccn3)[C@@H](C)O)s2)n1` [I-269, N-((1S,2R)-1-(4-(cyclopropanesulfonamido)pyridin-2-yl)-2-hydroxypropyl)-5-(6-ethoxypyrazin-2-yl)thiazole-2-carboxamide]: not below 8.30; for `CCOc1cncc(-c2cnc(C(=O)N[C@@H](c3cccc(NS(=O)(=O)C(F)F)c3)[C@H](C)N3CCOCC3)s2)n1` [I-222, N-((1S,2S)-1-(3-((difluoromethyl)sulfonamido)phenyl)-2-morpholinopropyl)-5-(6-ethoxypyrazin-2-yl)thiazole-2-carboxamide]: 7.60 to 8.30.
The same measure, in the same setting: next, `CCOc1cncc(-c2cnc(C(=O)N[C@@H](CN3CCN(C4CC4)CC3)c3cccc(NS(=O)(=O)C(F)F)c3)s2)n1` (single isomer, unassigned) [I-41]: 7.60 to 8.30; `CCOc1cncc(-c2cnc(C(=O)NCc3cc(NS(=O)(=O)C4CC4)ncn3)s2)n1` [I-5, N-((6-(cyclopropanesulfonamido)pyrimidin-4-yl)methyl)-5-(6-ethoxypyrazin-2-yl)thiazole-2-carboxamide]: 7.60 to 8.30; `CCOc1cncc(-c2cnc(C(=O)N[C@@H](c3cccc(NS(=O)(=O)C(F)F)c3)[C@@H](C)O)s2)n1` [I-287, N-((1S,2R)-1-(3-((difluoromethyl)sulfonamido)phenyl)-2-hydroxypropyl)-5-(6-ethoxypyrazin-2-yl)thiazole-2-carboxamide]: 7.60 to 8.30.
As to `CCOc1cncc(-c2cnc(C(=O)N[C@@H](CN3CCCC3)c3cc(NS(=O)(=O)C4CC4)ncn3)s2)n1` [I-250, (S)-N-(1-(6-(cyclopropanesulfonamido)pyrimidin-4-yl)-2-(pyrrolidin-1-yl)ethyl)-5-(6-ethoxypyrazin-2-yl)thiazole-2-carboxamide], the pIC50 is 7.30 to 7.60.
In the case of `CCOc1cncc(-c2cnc(C(=O)N[C@@H](Cn3nccn3)c3cccc(NS(=O)(=O)C(F)F)c3)s2)n1` [I-217, (R)-N-(1-(3-((difluoromethyl)sulfonamido)phenyl)-2-(2H-1,2,3-triazol-2-yl)ethyl)-5-(6-ethoxypyrazin-2-yl)thiazole-2-carboxamide], the pIC50 is 7.60 to 8.30.
Turning to `O=C(N[C@@H](CN1CCCC1)c1cc(NS(=O)(=O)C2CC2)ccn1)c1ncc(-c2cnn3ccc(Cl)cc23)s1` [I-162, (S)-5-(5-chloropyrazolo[1,5-a]pyridin-3-yl)-N-(1-(4-(cyclopropanesulfonamido)pyridin-2-yl)-2-(pyrrolidin-1-yl)ethyl)thiazole-2-carboxamide], the pIC50 is 7.00 to 7.30.
Same read-out and setting: the same measure for `CCOc1cncc(-c2cnc(C(=O)N[C@]3(c4cc(NS(=O)(=O)C5CC5)ccn4)C[C@H](O)C3)s2)n1` [I-87, N-((1s,3s)-1-(4-(cyclopropanesulfonamido)pyridin-2-yl)-3-hydroxycyclobutyl)-5-(6-ethoxypyrazin-2-yl)thiazole-2-carboxamide]: not below 8.30.
Regarding `CCOc1cncc(-c2ccc(C(=O)N[C@@H](c3cc(NS(=O)(=O)C4CC4)ccn3)[C@@H]3CCCO3)nc2)n1` [I-69, N-((S)-(4-(cyclopropanesulfonamido)pyridin-2-yl)((S)-tetrahydrofuran-2-yl)methyl)-5-(6-ethoxypyrazin-2-yl)picolinamide], the pIC50 was 7.30 to 7.60.

(Values after patent publication US20250270200A1, “CTPS1 INHIBITORS AND USES THEREOF” (Nimbus Clotho, Inc., priority 2022, published 2025).)
